Drawing on patent publication US20240059691A1 (KALVISTA PHARMACEUTICALS LIMITED, priority 2020, published 2024), this text covers IC50 for 24 compounds.

Common to all, as to type: biochemical
One assay deals with KLK1 (Homo sapiens (Human), UniProt P06870). As to the kind of experiment: Determination of related protease inhibition: KLK1 (fluorogenic substrate at Km). As to conditions: 25° C. How it is done: (§1) Determination of Related Protease Inhibition
(§2) In vitro inhibition of related proteases was determined using an ([…] assay based on standard literature methods (see e.g. Shori et al., Biochem. Pharmacol., 1992, 43, 1209; Bouckaert et al., European Journal of Medicinal Chemistry 110 (2016) 181). Human serine protease enzymes Plasma Kallikrein, KLK1, FXa, Plasmin, Thrombin and Trypsin were assayed for enzymatic activity using an appropriate fluorogenic substrate at Km concentration, FXIa at fixed substrate concentration of 100 μM, and various concentrations of the test compound. Protease activity was measured by monitoring the accumulation of liberated fluorescence from the substrate over […]. The linear rate of fluorescence increase per minute was expressed as percentage (%) activity. IC50 values were calculated as the concentration of inhibitor giving 50% inhibition of the uninhibited enzyme activity (100%).

Another assay concerns the target Human Factor XIIa (Homo sapiens (Human), UniProt P00748). As to the kind of experiment: Determination of FXIIa inhibition (fluorogenic substrate H-DPro-Phe-Arg-AFC, IC50 assay). As to conditions: substrate H-DPro-Phe-Arg-AFC at Km, 25° C.; class scale A-G. In a few lines: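 IC50 derived from % remaining activity, taken as the linear fluorescence rate over a 5 min read at 25° C. Substrate H-DPro-Phe-Arg-AFC was used at its Km (Michaelis-Menten) with human FXIIa and serial compound dilutions, 25° C.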

Another assay deals with FXa (Homo sapiens (Human), UniProt P00742). As to the kind of experiment: Determination of related protease inhibition: FXa (fluorogenic substrate at Km). As to conditions: 25° C. How it is done:
as §1, §2

Another assay concerns the target Plasma Kallikrein (Homo sapiens (Human), UniProt P03952). Nature of the assay: Determination of related protease inhibition: Plasma Kallikrein (fluorogenic substrate at Km). As to conditions: 25° C., read-out: IC50 (human PKal). In a few lines: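 Fluorescence release from a Km-level fluorogenic substrate, read for 5 min at 25 °C, gave the linear rate per minute for each inhibitor concentration. Rates were converted to % of uninhibited human enzyme activity; IC50 = inhibitor concentration producing 50% inhibition.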

The structures appear in SMILES notation.

Chain of Plasma Kallikrein (P03952 391-638): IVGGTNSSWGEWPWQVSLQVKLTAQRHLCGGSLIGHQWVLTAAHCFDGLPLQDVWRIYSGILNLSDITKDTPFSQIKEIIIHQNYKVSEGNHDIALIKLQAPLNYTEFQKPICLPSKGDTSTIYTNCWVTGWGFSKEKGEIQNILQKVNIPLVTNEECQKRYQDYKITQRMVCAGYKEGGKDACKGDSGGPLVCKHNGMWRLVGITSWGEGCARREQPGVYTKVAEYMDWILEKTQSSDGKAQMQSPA
Chain of Plasma Kallikrein (P03952 20-390 partner): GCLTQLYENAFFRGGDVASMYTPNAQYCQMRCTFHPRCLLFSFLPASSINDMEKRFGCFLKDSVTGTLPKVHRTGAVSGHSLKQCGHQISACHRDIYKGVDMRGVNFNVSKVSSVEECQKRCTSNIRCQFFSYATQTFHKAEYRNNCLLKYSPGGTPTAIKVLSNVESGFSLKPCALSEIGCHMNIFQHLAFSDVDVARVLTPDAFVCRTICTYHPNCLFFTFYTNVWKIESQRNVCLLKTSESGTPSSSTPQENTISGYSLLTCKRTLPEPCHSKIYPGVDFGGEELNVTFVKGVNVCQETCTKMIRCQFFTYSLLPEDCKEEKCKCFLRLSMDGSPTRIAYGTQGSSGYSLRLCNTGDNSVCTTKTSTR
Chain of Human Factor XIIa (P00748 373-615): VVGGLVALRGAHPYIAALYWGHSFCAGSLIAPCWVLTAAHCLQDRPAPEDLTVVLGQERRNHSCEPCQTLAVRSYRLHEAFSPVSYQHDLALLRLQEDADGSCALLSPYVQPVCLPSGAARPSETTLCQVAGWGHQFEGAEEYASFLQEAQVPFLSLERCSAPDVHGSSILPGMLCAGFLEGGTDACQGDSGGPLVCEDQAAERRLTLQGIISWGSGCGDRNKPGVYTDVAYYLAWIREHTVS
Chain of FXa (P00742 235-488): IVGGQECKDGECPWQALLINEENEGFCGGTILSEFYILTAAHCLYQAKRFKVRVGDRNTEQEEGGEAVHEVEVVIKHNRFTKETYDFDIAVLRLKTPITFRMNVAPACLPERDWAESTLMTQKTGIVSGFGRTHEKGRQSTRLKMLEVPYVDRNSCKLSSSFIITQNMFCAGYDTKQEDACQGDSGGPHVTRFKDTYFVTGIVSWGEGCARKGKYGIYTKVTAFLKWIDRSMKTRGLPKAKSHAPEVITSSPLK
Chain of FXa (P00742 41-179 partner): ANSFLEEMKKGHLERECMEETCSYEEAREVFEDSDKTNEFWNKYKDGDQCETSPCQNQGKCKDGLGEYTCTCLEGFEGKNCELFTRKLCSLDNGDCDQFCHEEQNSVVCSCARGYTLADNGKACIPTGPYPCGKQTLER
Chain of KLK1 (P06870 25-262): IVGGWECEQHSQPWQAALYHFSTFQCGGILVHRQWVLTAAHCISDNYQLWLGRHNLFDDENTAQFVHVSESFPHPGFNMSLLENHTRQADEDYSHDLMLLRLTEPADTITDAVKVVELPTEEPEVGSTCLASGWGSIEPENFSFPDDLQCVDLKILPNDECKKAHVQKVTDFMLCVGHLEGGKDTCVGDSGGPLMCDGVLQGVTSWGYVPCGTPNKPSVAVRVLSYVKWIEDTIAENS

As for `Cc1cc(N2CCn3c(nnc3C(F)(F)F)C2C)ncc1CNc1cccc2c(N)nccc12` (racemic) [Example 1303, N5-((4-Methyl-6-(8-methyl-3-(trifluoromethyl)-5,6-dihydro-[1,2,4]triazolo[4,3-a]pyrazin-7(8H)-yl)pyridin-3-yl)methyl)isoquinoline-1,5-diamine], the IC50 was greater than 4 µM on KLK1 and 0.01 to 0.1 µM against Human Factor XIIa.
For the compound `Cc1cc(N2CCn3c(nnc3C(F)(F)F)C2C)ncc1CNc1cccc2c(N)nccc12` (single isomer, unassigned) [Example 1304, (R*)-N5-((4-methyl-6-(8-methyl-3-(trifluoromethyl)-5,6-dihydro-[1,2,4]triazolo[4,3-a]pyrazin-7(8H)-yl)pyridin-3-yl)methyl)isoquinoline-1,5-diamine], the concentration for half-maximal inhibition (IC50) at KLK1 and on Human Factor XIIa was 3 to 10 µM in each case.
Take `FC(F)(F)c1nnc2n1CCN(c1ccc(CNc3ccn4ccnc4c3)cn1)C2` [Example 1288, N-((6-(3-(trifluoromethyl)-5,6-dihydro-[1,2,4]triazolo[4,3-a]pyrazin-7(8H)-yl)pyridin-3-yl)methyl)imidazo[1,2-a]pyridin-7-amine]: the results for the IC50 against KLK1 and on FXa were greater than 100 µM and greater than 40 µM, respectively.
As to `FC(F)(F)c1nnc2n1CCN(c1ccc(CNc3cnc4[nH]cc(Cl)c4c3)cn1)C2` [Example 1289, 3-chloro-N-((6-(3-(trifluoromethyl)-5,6-dihydro-[1,2,4]triazolo[4,3-a]pyrazin-7(8H)-yl)pyridin-3-yl)methyl)-1H-pyrrolo[2,3-b]pyridin-5-amine], the IC50 against KLK1 and against FXa was greater than 40 µM throughout.
As for `CC(C)Oc1cc(NCc2ccc(N3CCn4c(nnc4C(F)(F)F)C3)nc2)ccn1` [Example 1290, 2-isopropoxy-N-((6-(3-(trifluoromethyl)-5,6-dihydro-[1,2,4]triazolo[4,3-a]pyrazin-7(8H)-yl)pyridin-3-yl)methyl)pyridin-4-amine], the IC50 at KLK1 and on FXa was greater than 40 µM each time.
With `Cc1cc(NCc2ccc(N3CCn4c(nnc4C(F)(F)F)C3)nc2)c2cc(Cl)[nH]c2n1` [Example 1293, 2-chloro-6-methyl-N-((6-(3-(trifluoromethyl)-5,6-dihydro-[1,2,4]triazolo[4,3-a]pyrazin-7(8H)-yl)pyridin-3-yl)methyl)-1H-pyrrolo[2,3-b]pyridin-4-amine], the IC50 against KLK1 and against FXa was greater than 40 µM each time.
Compound `Nc1nccc2c(NCc3cnc(N4CCn5c(nnc5C(F)(F)F)C4)c(C(F)(F)F)c3)cccc12` [Example 1306, N5-((5-(trifluoromethyl)-6-(3-(trifluoromethyl)-5,6-dihydro-[1,2,4]triazolo[4,3-a]pyrazin-7(8H)-yl)pyridin-3-yl)methyl)isoquinoline-1,5-diamine] gave an IC50 against KLK1 of 1 to 3 µM.
`Nc1nccc2c(NCc3cnc(N4CCn5c(nnc5C(F)(F)F)C4)cc3C3CC3)cccc12` [Example 1307, N5-((4-cyclopropyl-6-(3-(trifluoromethyl)-5,6-dihydro-[1,2,4]triazolo[4,3-a]pyrazin-7(8H)-yl)pyridin-3-yl)methyl)isoquinoline-1,5-diamine]: the IC50 against KLK1 was in the range of 3 to 10 µM; against Human Factor XIIa it was 0.3 to 1 µM.
On to `CC(C)c1cc(N2CCn3c(nnc3C(F)(F)F)C2)ncc1CNc1cccc2c(N)nccc12` [Example 1308, N5-((4-isopropyl-6-(3-(trifluoromethyl)-5,6-dihydro-[1,2,4]triazolo[4,3-a]pyrazin-7(8H)-yl)pyridin-3-yl)methyl)isoquinoline-1,5-diamine], for which the concentration for half-maximal inhibition (IC50) at KLK1 lay within 3 to 10 µM; on Human Factor XIIa it was 1 to 3 µM.
`CCc1cc(N2CCn3c(nnc3C(F)(F)F)C2)ncc1CNc1cccc2c(N)nccc12` [Example 1309, N5-((4-ethyl-6-(3-(trifluoromethyl)-5,6-dihydro-[1,2,4]triazolo[4,3-a]pyrazin-7(8H)-yl)pyridin-3-yl)methyl)isoquinoline-1,5-diamine]: the figures for the IC50 against KLK1 and on Human Factor XIIa were greater than 4 µM and 0.01 to 0.1 µM, respectively.
The corresponding values for `Cc1nnc2n1CCN(c1ccc(CNc3cccc4c(N)nccc34)cn1)CC2` [Example 1310, N5-((6-(3-methyl-5,6,8,9-tetrahydro-7H-[1,2,4]triazolo[4,3-d][1,4]diazepin-7-yl)pyridin-3-yl)methyl)isoquinoline-1,5-diamine] are 1 to 3 µM and 1 to 3 µM.
With `CC1Cn2c(nnc2C(F)(F)F)CN1c1ccc(CNc2cccc3c(N)nccc23)cn1` (centres unmarked) [Example 1311, N5-((6-(6-Methyl-3-(trifluoromethyl)-5,6-dihydro-[1,2,4]triazolo[4,3-a]pyrazin-7(8H)-yl)pyridin-3-yl)methyl)isoquinoline-1,5-diamine], the figures for the IC50 against KLK1 and at Human Factor XIIa were 3 to 10 µM and 0.01 to 0.1 µM, respectively.
Consider `Cc1cc(N2CCn3c(nnc3C(F)(F)F)C2)ncc1CNc1ccnc2[nH]c(Cl)cc12` [Example 1313, 2-Chloro-N-((4-methyl-6-(3-(trifluoromethyl)-5,6-dihydro-[1,2,4]triazolo[4,3-a]pyrazin-7(8H)-yl)pyridin-3-yl)methyl)-1H-pyrrolo[2,3-b]pyridin-4-amine], for which the half-maximal inhibitory concentration (IC50) against KLK1 is greater than 4 µM; at Human Factor XIIa, 0.1 to 0.3 µM.
With `CC(C)N1C[C@H]2C[C@@H]1CN2Cc1cc(CNc2cccc3c(N)nccc23)ccn1` [Example 4295, 5-N-[(2-{[(1R,4R)-5-isopropyl-2,5-diazabicyclo[2.2.1]heptan-2-yl]methyl}pyridin-4-yl)methyl]isoquinoline-1,5-diamine], the IC50 against KLK1 and against Human Factor XIIa was 10 to 40 µM in each case.
On to `COc1ccc(NCc2ccnc(OCC3CCN(C)CC3)c2)c2ccnc(N)c12` [Example 4470, 8-methoxy-N5-((2-((1-methylpiperidin-4-yl)methoxy)pyridin-4-yl)methyl)isoquinoline-1,5-diamine], for which the IC50 against Human Factor XIIa is 10 to 40 µM; on Plasma Kallikrein, greater than 40 µM.
As for `Nc1nccc2c(NCc3ccnc(N4CCn5ccnc5C4)c3)cccc12` [Example 5436, N5-((2-(5,6-dihydroimidazo[1,2-a]pyrazin-7(8H)-yl)pyridin-4-yl)methyl)isoquinoline-1,5-diamine], the IC50 is 10 to 40 µM at Human Factor XIIa and greater than 40 µM at Plasma Kallikrein.
On the same counts, the results for `Nc1ncc(Cl)c2cc(NCc3ccnc(N4CCn5ccnc5C4)c3)ccc12` [Example 5437, 4-chloro-N6-((2-(5,6-dihydroimidazo[1,2-a]pyrazin-7(8H)-yl)pyridin-4-yl)methyl)isoquinoline-1,6-diamine] are 10 to 40 µM and greater than 40 µM.
Consider `CC(C)N1CCC(CN(CCCO)C(=O)c2cccc(CNc3cccc4c(N)nccc34)c2)CC1` [Example 5441, 3-(((1-aminoisoquinolin-5-yl)amino)methyl)-N-(3-hydroxypropyl)-N-((1-isopropylpiperidin-4-yl)methyl)benzamide], for which the IC50 on Human Factor XIIa was 3 to 10 µM; on Plasma Kallikrein, greater than 40 µM.
`Nc1ncc(Cl)c2cc(NCc3cccc(CC(=O)N4CCn5ccnc5C4)c3)ccc12` [Example 5442, 2-(3-(((1-amino-4-chloroisoquinolin-6-yl)amino)methyl)phenyl)-1-(5,6-dihydroimidazo[1,2-a]pyrazin-7(8H)-yl)ethan-1-one]: the figures for the concentration for half-maximal inhibition (IC50) on Human Factor XIIa and at Plasma Kallikrein were 10 to 40 µM and greater than 40 µM, respectively.
For the compound `Nc1nccc2c(NCc3cnc(N4CCn5c(nnc5C(F)(F)F)C4)cn3)cccc12` [Example 9002, N5-((5-(3-(trifluoromethyl)-5,6-dihydro-[1,2,4]triazolo[4,3-a]pyrazin-7(8H)-yl)pyrazin-2-yl)methyl)isoquinoline-1,5-diamine], the IC50 against KLK1 lay within 3 to 10 µM; on Human Factor XIIa, 0.3 to 1 µM.
On the same counts, the results for `Nc1nccc2c(NCc3cnc(N4CCn5c(nnc5C(F)(F)F)C4)nc3)cccc12` [Example 9003, N5-((2-(3-(trifluoromethyl)-5,6-dihydro-[1,2,4]triazolo[4,3-a]pyrazin-7(8H)-yl)pyrimidin-5-yl)methyl)isoquinoline-1,5-diamine] are 3 to 10 µM and 1 to 3 µM.
Regarding `Nc1nccc2c(NCc3ccc(N4CCn5c(nnc5C(F)(F)F)C4)nn3)cccc12` [Example 9004, N5-((6-(3-(Trifluoromethyl)-5,6-dihydro-[1,2,4]triazolo[4,3-a]pyrazin-7(8H)-yl)pyridazin-3-yl)methyl)isoquinoline-1,5-diamine], the IC50 is 3 to 10 µM against KLK1 and 0.3 to 1 µM on Human Factor XIIa.
For `Cc1cc(N2CCn3c(nnc3C(F)(F)F)C2)cnc1CNc1cccc2c(N)nccc12` [Example 9005, N5-((3-Methyl-5-(3-(trifluoromethyl)-5,6-dihydro-[1,2,4]triazolo[4,3-a]pyrazin-7(8H)-yl)pyridin-2-yl)methyl)isoquinoline-1,5-diamine], the IC50 on KLK1 is greater than 4 µM; against Human Factor XIIa it was 0.01 to 0.1 µM.
On to `Nc1nccc2c(N3CCCC3c3ccc(N4CCn5c(nnc5C(F)F)C4)nc3)cccc12` (centres unmarked) [Example 10001, 5-(2-(6-(3-(difluoromethyl)-5,6-dihydro-[1,2,4]triazolo[4,3-a]pyrazin-7(8H)-yl)pyridin-3-yl)pyrrolidin-1-yl)isoquinolin-1-amine], for which the values for the IC50 against Human Factor XIIa and at Plasma Kallikrein were 1 to 3 µM and greater than 40 µM, respectively.

What is called IC50 is the concentration needed to halve the response being measured.
